# Experimental data: PubChem BioAssay AID1645863 (Buhrlage Lab, Dana-Farber Cancer Institute and Novartis …, 2021)
# Activity calls are given as the source filed them. How the calls were made is not given here.
# Target: Ubiquitin carboxyl-terminal hydrolase 10 (Homo sapiens) (UniProt Q14694)
# Assay: ubiquitin-specific protease 10 DUB inhibitors, concentration-effect, biochemical, verification of primary screen actives (AID 1645863);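 further: potency values describe inhibition of USP10 cleavage of a fluorogenic ubiquitin substrate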
# Conditions: USP10 deubiquitinase enzymatic assay
# Chain of Ubiquitin carboxyl-terminal hydrolase 10 (Homo sapiens) (Q14694 whole entry, looked up): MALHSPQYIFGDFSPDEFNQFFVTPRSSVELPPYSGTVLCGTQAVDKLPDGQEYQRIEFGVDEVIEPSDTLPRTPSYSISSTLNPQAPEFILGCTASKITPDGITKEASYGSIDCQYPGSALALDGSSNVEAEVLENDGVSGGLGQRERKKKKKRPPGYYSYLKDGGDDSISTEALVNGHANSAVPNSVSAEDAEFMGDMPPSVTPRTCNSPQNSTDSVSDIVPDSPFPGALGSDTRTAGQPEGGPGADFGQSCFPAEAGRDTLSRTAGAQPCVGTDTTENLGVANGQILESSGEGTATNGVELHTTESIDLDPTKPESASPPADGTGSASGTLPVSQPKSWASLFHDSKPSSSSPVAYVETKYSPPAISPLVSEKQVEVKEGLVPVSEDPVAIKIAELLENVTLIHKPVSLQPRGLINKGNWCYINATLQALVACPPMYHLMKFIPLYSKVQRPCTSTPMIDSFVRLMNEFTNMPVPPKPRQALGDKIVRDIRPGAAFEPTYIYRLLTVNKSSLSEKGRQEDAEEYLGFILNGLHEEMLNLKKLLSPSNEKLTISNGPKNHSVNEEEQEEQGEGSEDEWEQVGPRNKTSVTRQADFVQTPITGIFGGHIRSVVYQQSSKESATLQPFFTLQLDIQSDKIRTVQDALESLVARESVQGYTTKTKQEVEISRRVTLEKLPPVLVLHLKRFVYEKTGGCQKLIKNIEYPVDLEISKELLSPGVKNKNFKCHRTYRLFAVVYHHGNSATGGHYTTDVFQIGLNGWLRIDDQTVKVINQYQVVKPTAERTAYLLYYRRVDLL
row,SMILES,IC50
1,Cc1cc(OCC(=O)Nc2ccc3c(c2)NC(=O)CO3)ccc1Cl,15.5 µM
2,COc1ccc(Cl)cc1NC(=O)CSc1ncnc2nc[nH]c12,37.9 µM
3,O=C1NC(=O)/C(=C/c2ccc(OC(=O)c3ccc(Cl)cc3Cl)cc2)N1,22.1 µM
4,O=C(Nc1ccc(Cn2cnc(-c3nc(-c4ccccc4)no3)c2)cc1)c1ccccc1F,> 40 µM (inactive)
5,O=C(c1ccc2cc[nH]c2c1)N1CCC(Nc2cccnc2)C1 (configuration not stated),> 40 µM (inactive)
6,COc1ccc(CC(=O)Nc2c(NCc3ccccc3)c3ccccc3oc2=O)cc1,38.4 µM
7,COc1ccc(NC(=O)CC(=O)c2ccc([N+](=O)[O-])cc2)cc1S(=O)(=O)Nc1ccc(Br)cc1,22.9 µM
8,O=C(Cn1c(=O)n(Cc2ccc3c(c2)OCO3)c(=O)c2cccnc21)Nc1ccc(F)cc1,> 40 µM (inactive)
9,Cc1ccc(C(=O)O)cc1NC(=O)C(Sc1cccc(NC(=O)c2ccccc2C)c1)c1ccccc1 (configuration not stated),> 40 µM (inactive)
10,Cn1nc(Cl)c(Cl)c1Oc1ccc(S(=O)(=O)Nc2ccc(Oc3ccc(C(F)(F)F)cn3)c(Cl)c2)cc1,13 µM
11,Cc1ccc(-c2cc(C(F)F)n3ncc(C(=O)Nc4ccc(O)cc4)c3n2)cc1,14.4 µM
12,COc1cc(NC(=O)Cn2nc(-c3ccc(F)cc3)ccc2=O)ccc1-n1cnnn1,> 40 µM (inactive)
13,O=C(CCc1ccc(S(=O)(=O)N2CCOCC2)cc1)OCC(=O)c1ccc(-c2ccccc2)cc1,38.8 µM
14,N#Cc1cccc(NC(=O)Cn2cccc2-c2nc(-c3ccccc3)no2)c1,> 40 µM (inactive)
15,CCc1ccc(OCCn2c(CCNC(=O)C3CCCCC3)nc3ccccc32)cc1,> 40 µM (inactive)
16,COc1ccc2c(c1)CCc1c-2nc2ccccc2c1N1CCOCC1,> 40 µM (inactive)
17,COc1ccc(-c2n[nH]n3c2nc(=O)c2ccc(C(=O)NCc4ccco4)cc23)cc1,> 40 µM (inactive)
18,COc1ccccc1CNC(=O)CCCCn1c(=O)c2ccccc2n(Cc2ccc(C)cc2)c1=O,20.8 µM
19,Cc1cc(=O)[nH]c(NC2CCN(S(=O)(=O)c3ccccc3C(F)(F)F)CC2)n1,> 40 µM (inactive)
20,Cc1c(NC(=O)/C=C/c2cccc(Cl)c2Cl)cccc1-n1cnnn1,> 40 µM (inactive)
21,CCc1nnc(-c2ccc3ccn(CC(=O)N4CCN(c5ccccn5)CC4)c3c2)o1,> 40 µM (inactive)
22,O=C1CSC(c2ccc3c(c2)OCO3)c2c(n(C3CCCCCC3)[nH]c2=O)N1 (configuration not stated),36.8 µM
23,Cc1cc(N2CCN(c3ncccn3)CC2)nc2ccc(NC(=O)Cn3nc([N+](=O)[O-])c(Br)c3C)cc12,> 40 µM (inactive)

row,SMILES,IC50
1,O=C(c1cc(S(=O)(=O)Nc2ccc(Cl)cc2)ccc1Cl)N1CCCc2ccccc21,> 40 µM (inactive)
2,CC(OC(=O)c1cc(S(=O)(=O)Nc2ccccc2F)ccc1Cl)C(=O)Nc1ccc([N+](=O)[O-])cc1C(F)(F)F (configuration not stated),16 µM
3,O=C(c1cc(Cl)c(Cl)[nH]1)c1cc(Cl)cc(Cl)c1O,15.2 µM
4,COc1ccc(Cl)cc1NC(=O)COC(=O)c1cc2ccccc2oc1=O,17.5 µM
5,Cc1cc(Cl)ccc1NC(=O)c1cc(-c2cccnc2)n[nH]1,> 40 µM (inactive)
6,O=C(c1ccncc1)N1CCN(CC2CC=CCC2)CC1 (configuration not stated),> 40 µM (inactive)
7,Cn1c(=O)[nH]c2nncnc2c1=O,> 40 µM (inactive)
8,Cc1ccc(C(=O)c2cn(CC(=O)Nc3ccccc3)c3ccc(C)cc3c2=O)cc1,> 40 µM (inactive)
9,CSC1SCC2C(=O)N(C)C(C(C)C(C)C)C(=O)OCC(NC(=O)c3cnc4ccccc4n3)C(=O)NC(C)C(=O)N(C)C1C(=O)N(C)C(C(C)C(C)C)C(=O)OCC(NC(=O)c1cnc3ccccc3n1)C(=O)NC(C)C(=O)N2C (configuration not stated),19.3 µM
10,COc1c2nc3ccccc3oc-2cc(=O)c1OC,> 40 µM (inactive)
11,O=c1[nH]c2ccc(S(=O)(=O)Nc3ccc(O)c4ccccc34)cc2[nH]1,39 µM
12,COc1ccc(-c2nc3c(c(=O)c4ccccc4n3C)c(=O)n2Cc2ccco2)cc1,28.7 µM
13,Cc1cc(Nc2cccc(Cl)c2)n2nc(-c3cccnc3)nc2n1,> 40 µM (inactive)
14,O=C(Cn1c(=O)n(-c2ccc(CC(=O)NC3CCCC3)cc2)c(=O)c2ccccc21)Nc1ccccc1[N+](=O)[O-],19.9 µM
15,CCOc1ccc(-n2ccnc(SCC(=O)Nc3ccccc3F)c2=O)cc1,39.1 µM
16,Cc1ccc2cc(CNc3ccccc3)c(=O)n(CC(=O)Nc3ccccc3C)c2c1,> 40 µM (inactive)
17,O=C(Cc1ccc(-n2c(=O)c3ccccc3n(Cc3cccc(F)c3)c2=O)cc1)NC1CCCC1,> 40 µM (inactive)
18,COc1ccccc1CNC(=O)C1c2ccccc2C(=O)N1Cc1ccccc1C (configuration not stated),> 40 µM (inactive)
19,COc1ccc(C(=O)COC(=O)c2cccc(NC(=O)c3ccc(Cl)cc3)c2)cc1,> 40 µM (inactive)
20,COc1ccc(NS(=O)(=O)c2cc(NC(=O)CC(=O)c3ccc([N+](=O)[O-])cc3)ccc2C)cc1,> 40 µM (inactive)
21,O=C(Cn1c(=O)[nH]c2ccccc2c1=O)NCc1ccccc1Cl,> 40 µM (inactive)
22,Cc1cc(=O)n(C)c2c(O)c3c(cc12)c(C)cc(=O)n3C,> 40 µM (inactive)
23,Cc1nc2nc(C(c3ccccc3)c3ccccc3)[nH]n2c(=O)c1Cc1ccccc1,> 40 µM (inactive)

row,SMILES,IC50
1,CCOC(=O)N1CCC(NC(=O)c2cc(C(=O)Nc3ccc(S(=O)(=O)N4CCCCC4)cc3)ccc2CO)CC1,> 40 µM (inactive)
2,O=C(CCCCn1c(=O)c2ccccc2n(CC(=O)Nc2ccc3c(c2)OCCO3)c1=O)NCc1ccco1,25.2 µM
3,CCNS(=O)(=O)c1ccc(-c2ccc(-n3cnnn3)cc2)cc1,> 40 µM (inactive)
4,COc1ccc(NC(=O)CNC(=O)c2ccc3nc(-n4cccc4)sc3c2)cc1,> 40 µM (inactive)
5,Cn1c2ccccc2c(=O)c2c(=O)n(Cc3ccco3)c(-c3ccccc3F)nc21,8.37 µM
6,Cc1ccc(S(=O)(=O)NCc2ccc(C(=O)NCCc3ccc(S(N)(=O)=O)cc3)cc2)cc1,> 40 µM (inactive)
7,COc1ccc(-c2nc(-c3cn(-c4ccccc4)nn3)no2)c(OC)c1,> 40 µM (inactive)
8,O=C(Nc1ccc(F)cc1)Nc1ccccc1OCc1cc(=O)n2ccccc2n1,26.3 µM
9,Cc1ccccc1NC(=O)CSC1=NC2(CCCCC2)Nc2ccccc21,> 40 µM (inactive)
10,COCCCNC(=O)c1ccc(Cn2c(=O)c3ccccc3n(CC(=O)Nc3ccc(OC)cc3)c2=O)cc1,> 40 µM (inactive)
11,O=C(c1cnc2ccccc2n1)N1CCC(S(=O)(=O)c2ccc(-c3ccco3)cc2)CC1,> 40 µM (inactive)
12,O=C(Nc1ccccc1)Nc1ccc(F)c(-c2nnc(-c3ccccc3)o2)c1,> 40 µM (inactive)
13,O=C(Nc1ccc(C(F)(F)F)cc1)C1CC(=O)N(c2ccc3c(c2)OCCO3)C1 (configuration not stated),> 40 µM (inactive)
14,O=C(c1ccccc1CN1CCOCC1)N1CCOCC2(C1)CN(c1ccc(F)cc1)C(=O)O2 (configuration not stated),> 40 µM (inactive)
15,Cc1c(C(=O)Nc2ccc(Oc3ccccc3)cc2)nnn1-c1cccc(Cl)c1,> 40 µM (inactive)
16,O=c1[nH]c(C2CCN(S(=O)(=O)c3ccc(S(=O)(=O)N4CCOCC4)cc3)CC2)nc2c1nnn2Cc1ccc(F)cc1,> 40 µM (inactive)
17,Cc1ccc(CNC(=O)c2ccc3nn(CC(=O)Nc4ccccc4F)c(=O)n3c2)cc1,> 40 µM (inactive)
18,Nc1ncnc2c1ncn2[C@@H]1O[C@H](CO)C[C@@H]1O,24.9 µM
19,Cc1cc(C)c(O)c(-c2cc(C(=O)Nc3ccccc3Cl)[nH]n2)c1,> 40 µM (inactive)
20,CCOc1ccc(NS(=O)(=O)c2ccc(NC(=O)Nc3ccccc3)cc2)cc1,> 40 µM (inactive)
21,Cc1cc(NC(=O)CN2CCCN(S(=O)(=O)c3ccc(F)cc3)CC2)ccc1Br,> 40 µM (inactive)
22,Cc1cc(-c2nnc(SCC(=O)Nc3ccc(Br)c(C)c3)n2N)n[nH]1,> 40 µM (inactive)
23,CC(C)=CCc1c2c(c3occ(-c4ccc(O)cc4)c(=O)c3c1O)C=CC(C)(C)O2,> 40 µM (inactive)

row,SMILES,IC50
1,NC(=O)c1ccccc1NC(=O)COc1ccc2c(c1)oc(=O)c1ccccc12,5.75 µM
2,CC(C)[C@H]1CC[C@@]2(CO2)[C@H]2C(=O)OCC(C(=O)O)=C[C@H]12,21.7 µM
3,O=C(Nc1cccc([N+](=O)[O-])c1)Nc1ccc2snnc2c1,> 40 µM (inactive)
4,COC(=O)c1ccc2c(=O)n(CCCCCC(=O)NCc3cccc(Cl)c3)c(=O)[nH]c2c1,16 µM
5,Cc1ccc(C)c(S(=O)(=O)N2CCN(c3ccc4nnc(-c5ccco5)n4n3)CC2)c1,> 40 µM (inactive)
6,Cc1[nH]c2ccc(F)cc2c(=O)c1CN1CCCCC1,> 40 µM (inactive)
7,Cc1ccc2nc(NC(=O)/C=C/c3ccc4c(c3)OCO4)sc2c1,15.1 µM
8,O=C(NCc1ccc2c(c1)OCO2)c1cc2c(s1)CCC2,13.2 µM
9,O=C(O)c1ccccc1C(=O)Nc1ccc(SC(C(=O)Nc2ccccc2Cl)c2ccccc2)cc1 (configuration not stated),16.8 µM
10,O=C(Nc1cccc(F)c1)Nc1cccc(-c2nnc(-c3ccccc3)o2)c1,18.2 µM
11,CCc1[nH]c(=O)cc2cc(OC)c(OC)cc12,2.97 µM
12,O=c1[nH]c(C2CCN(S(=O)(=O)c3ccc(S(=O)(=O)NC4CCCC4)cc3)CC2)nc2c1nnn2Cc1cccc(Cl)c1,13.2 µM
13,Cc1cccc(C(=O)Nc2cccc(SC(C(=O)Nc3ccc(Cl)c(C(=O)O)c3)c3ccccc3)c2)c1 (configuration not stated),7.42 µM
14,CC(NC(=O)c1nc2n(n1)-c1ccccc1S(=O)(=O)N2)c1cc2ccccc2o1 (configuration not stated),30.7 µM
15,CCn1cc2c(n1)c(=O)n(Cc1ccccc1)c(=O)n2CC(=O)Nc1ccc(C(C)C)cc1,15 µM
16,Cc1ccnc(Nc2nc(-c3ccccc3)c3cc(Cl)ccc3n2)n1,14.7 µM
17,Cc1cc(NS(=O)(=O)c2ccc(NC(=O)COc3ccc(Cl)cc3)cc2)no1,> 40 µM (inactive)
18,Cc1c(Cl)cccc1NC(=O)Cn1cc(C(=O)C2CC2)c2ccccc21,> 40 µM (inactive)
19,O=C(Nc1ccc2c(c1)CCC2)C1Cc2ccccc2CN1C(=O)c1ccccc1 (configuration not stated),> 40 µM (inactive)
20,NS(=O)(=O)c1ccc(CNS(=O)(=O)/C=C/c2ccccc2)cc1,> 40 µM (inactive)
21,Cc1ccccc1NC(=O)N1CCC(CC(=O)N2CCCCC2)CC1,> 40 µM (inactive)
22,COC(=O)c1ccc(NC(=O)/C=C/c2ccc(F)cc2)cc1,> 40 µM (inactive)
23,Cc1ccc(Nc2nc(O)c(CC(=O)Nc3ccccc3C)s2)cc1C,> 40 µM (inactive)
